Patent publication US9790178B2, “Pyrrolidinyl urea, thiourea, guanidine and cyanoguanidine compounds as TrkA kinase inhibitors” (Array BioPharma Inc., priority 2012, dated 2017)

Experiments:
Assay in all cases: KinaseProfiler off-target kinase profiling
Type in all cases: biochemical
[1] = molecular target: T1, CSK (Homo sapiens, UniProt P41240); conditions: 10 μM, ATP near Km
T1 construct: purchased Millipore, Inc. (KinaseProfiler service)
Procedure, shortened: (§1)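 10 μM test compound; [ATP] near Km for each enzyme; duplicate determinations; output = average % of control.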

[2] = molecular target: T2, PKAC-alpha (Homo sapiens, UniProt P17612); conditions: 10 μM, ATP near Km
T2 construct: purchased Millipore, Inc. (KinaseProfiler service)
Procedure, shortened: as §1

[3] = molecular target: T3, PTK5 (Homo sapiens, UniProt P42685); conditions: 10 μM, ATP near Km
T3 construct: purchased Millipore (KinaseProfiler service)
Procedure, shortened: as §1

[4] = molecular target: T4, PTK6 (Homo sapiens, UniProt Q13882); conditions: 10 μM, ATP near Km
T4 construct: purchased Millipore (KinaseProfiler service)
Procedure, shortened: as §1

[5] = molecular target: T5, GRK7 (Homo sapiens, UniProt Q8WTQ7); conditions: 10 μM, ATP near Km
T5 construct: purchased Millipore, Inc. (KinaseProfiler service)
Procedure, shortened: as §1

[6] = molecular target: T6, EphB2 (Homo sapiens, UniProt P29323); conditions: 10 μM, ATP near Km
T6 construct: purchased Millipore, Inc. (KinaseProfiler service)
Procedure, shortened: as §1

[7] = molecular target: T7, MST3 (Homo sapiens, UniProt Q9Y6E0); conditions: 10 μM, ATP near Km
T7 construct: purchased Millipore, Inc. (KinaseProfiler service)
Procedure, shortened: as §1

[8] = molecular target: T8, PhKgamma2 (Homo sapiens, UniProt P15735); conditions: 10 μM, ATP near Km
T8 construct: purchased Millipore, Inc. (KinaseProfiler service)
Procedure, shortened: as §1

[9] = molecular target: T9, CAMK2d (Homo sapiens, UniProt Q13557); conditions: 10 μM, ATP near Km
T9 construct: purchased Millipore, Inc. (KinaseProfiler service)
Procedure, shortened: as §1

[10] = molecular target: T10, DMPK (Homo sapiens, UniProt Q09013); conditions: 10 μM, ATP near Km
T10 construct: purchased Millipore, Inc. (KinaseProfiler service)
T10 sequence (Q09013 whole entry): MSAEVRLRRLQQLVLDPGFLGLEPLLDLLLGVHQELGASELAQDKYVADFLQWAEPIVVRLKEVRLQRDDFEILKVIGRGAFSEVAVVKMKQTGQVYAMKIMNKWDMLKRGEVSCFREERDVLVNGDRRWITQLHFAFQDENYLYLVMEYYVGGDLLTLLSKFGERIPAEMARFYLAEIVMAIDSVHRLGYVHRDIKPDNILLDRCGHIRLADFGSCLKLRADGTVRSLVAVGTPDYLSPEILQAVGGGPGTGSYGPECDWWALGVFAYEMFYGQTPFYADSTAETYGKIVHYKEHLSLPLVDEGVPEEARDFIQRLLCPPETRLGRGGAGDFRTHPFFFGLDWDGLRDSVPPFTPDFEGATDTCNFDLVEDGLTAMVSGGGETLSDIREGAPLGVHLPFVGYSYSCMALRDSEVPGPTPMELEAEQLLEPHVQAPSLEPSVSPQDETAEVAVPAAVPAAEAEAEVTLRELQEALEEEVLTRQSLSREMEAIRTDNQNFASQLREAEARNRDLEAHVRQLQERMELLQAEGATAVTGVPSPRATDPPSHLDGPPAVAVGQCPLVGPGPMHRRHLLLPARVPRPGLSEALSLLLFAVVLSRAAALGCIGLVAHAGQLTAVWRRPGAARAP
Procedure, shortened: as §1

[11] = molecular target: T11, Bmx (Homo sapiens, UniProt P51813); conditions: 10 μM, ATP near Km
T11 construct: purchased Millipore, Inc. (KinaseProfiler service)
Procedure, shortened: as §1

[12] = molecular target: T12, CDK5/p25 (Homo sapiens, UniProt Q00535); conditions: 10 μM, ATP near Km
T12 construct: purchased Millipore, Inc. (KinaseProfiler service)
Procedure, shortened: as §1

[13] = molecular target: T13, ITK (Homo sapiens, UniProt Q08881); conditions: 10 μM, ATP near Km
T13 construct: purchased Millipore, Inc. (KinaseProfiler service)
Procedure, shortened: as §1

[14] = molecular target: T14, LIMK1 (Homo sapiens, UniProt P53667); conditions: 10 μM, ATP near Km
T14 construct: purchased Millipore, Inc. (KinaseProfiler service)
T14 sequence (P53667 whole entry): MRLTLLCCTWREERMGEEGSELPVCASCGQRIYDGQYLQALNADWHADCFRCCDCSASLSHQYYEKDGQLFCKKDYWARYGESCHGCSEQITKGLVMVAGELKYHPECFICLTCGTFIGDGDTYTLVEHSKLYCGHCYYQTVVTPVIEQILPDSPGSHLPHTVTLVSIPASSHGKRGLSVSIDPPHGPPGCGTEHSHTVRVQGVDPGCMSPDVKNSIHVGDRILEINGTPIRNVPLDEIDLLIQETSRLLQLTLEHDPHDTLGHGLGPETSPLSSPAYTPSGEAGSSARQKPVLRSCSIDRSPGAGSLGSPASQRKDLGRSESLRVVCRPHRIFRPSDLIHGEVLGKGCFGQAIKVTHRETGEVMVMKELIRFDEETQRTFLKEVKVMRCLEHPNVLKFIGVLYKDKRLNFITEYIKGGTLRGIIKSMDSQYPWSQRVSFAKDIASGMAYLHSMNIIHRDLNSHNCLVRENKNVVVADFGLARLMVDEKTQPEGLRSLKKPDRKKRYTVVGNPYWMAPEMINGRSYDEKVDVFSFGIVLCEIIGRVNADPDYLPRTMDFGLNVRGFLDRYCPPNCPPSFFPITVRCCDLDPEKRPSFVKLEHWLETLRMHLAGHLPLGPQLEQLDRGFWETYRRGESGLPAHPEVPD
Procedure, shortened: as §1

[15] = molecular target: T15, CAMK1 (Homo sapiens, UniProt Q14012); conditions: 10 μM, ATP near Km
T15 construct: purchased Millipore, Inc. (KinaseProfiler service)
Procedure, shortened: as §1

[16] = molecular target: T16, PRKG1alpha (Homo sapiens, UniProt Q13976); conditions: 10 μM, ATP near Km
T16 construct: purchased Millipore (KinaseProfiler service)
Procedure, shortened: as §1

[17] = molecular target: T17, Flt3 (Homo sapiens, UniProt P36888); conditions: 10 μM, ATP near Km
T17 construct: purchased Millipore, Inc. (KinaseProfiler service)
Procedure, shortened: as §1

[18] = molecular target: T18, HIPK2 (Homo sapiens, UniProt Q9H2X6); conditions: 10 μM, ATP near Km
T18 construct: purchased Millipore, Inc. (KinaseProfiler service)
Procedure, shortened: as §1

[19] = molecular target: T19, CAMK2b (Homo sapiens, UniProt Q13554); conditions: 10 μM, ATP near Km
T19 construct: purchased Millipore, Inc. (KinaseProfiler service)
Procedure, shortened: as §1

[20] = molecular target: T20, MKK7beta (Homo sapiens, UniProt O14733); conditions: 10 μM, ATP near Km, POC verified as a false positive (footnote)
T20 construct: purchased Millipore, Inc. (KinaseProfiler service)
T20 sequence (O14733 whole entry): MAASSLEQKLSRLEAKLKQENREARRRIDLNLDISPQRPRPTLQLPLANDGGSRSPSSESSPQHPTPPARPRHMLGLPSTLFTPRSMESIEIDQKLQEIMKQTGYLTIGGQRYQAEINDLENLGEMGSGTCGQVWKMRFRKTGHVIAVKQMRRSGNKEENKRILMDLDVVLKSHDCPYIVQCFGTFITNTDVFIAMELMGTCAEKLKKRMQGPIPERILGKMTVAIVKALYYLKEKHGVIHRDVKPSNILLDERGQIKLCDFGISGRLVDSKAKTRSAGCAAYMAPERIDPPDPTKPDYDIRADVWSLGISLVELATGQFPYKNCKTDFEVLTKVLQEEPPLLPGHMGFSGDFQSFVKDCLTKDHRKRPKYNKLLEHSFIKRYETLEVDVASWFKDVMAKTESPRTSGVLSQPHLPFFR
Procedure, shortened: as §1

[21] = molecular target: T21, JNK1alpha1 (Homo sapiens, UniProt P45983); conditions: 10 μM, ATP near Km
T21 construct: purchased Millipore, Inc. (KinaseProfiler service)
Procedure, shortened: as §1

[22] = molecular target: T22, LKB1 (Homo sapiens, UniProt Q15831); conditions: 10 μM, ATP near Km
T22 construct: purchased Millipore, Inc. (KinaseProfiler service)
Procedure, shortened: as §1

[23] = molecular target: T23, PDGFRbeta (Homo sapiens, UniProt P09619); conditions: 10 μM, ATP near Km
T23 construct: purchased Millipore, Inc. (KinaseProfiler service)
T23 sequence (P09619 33-1106): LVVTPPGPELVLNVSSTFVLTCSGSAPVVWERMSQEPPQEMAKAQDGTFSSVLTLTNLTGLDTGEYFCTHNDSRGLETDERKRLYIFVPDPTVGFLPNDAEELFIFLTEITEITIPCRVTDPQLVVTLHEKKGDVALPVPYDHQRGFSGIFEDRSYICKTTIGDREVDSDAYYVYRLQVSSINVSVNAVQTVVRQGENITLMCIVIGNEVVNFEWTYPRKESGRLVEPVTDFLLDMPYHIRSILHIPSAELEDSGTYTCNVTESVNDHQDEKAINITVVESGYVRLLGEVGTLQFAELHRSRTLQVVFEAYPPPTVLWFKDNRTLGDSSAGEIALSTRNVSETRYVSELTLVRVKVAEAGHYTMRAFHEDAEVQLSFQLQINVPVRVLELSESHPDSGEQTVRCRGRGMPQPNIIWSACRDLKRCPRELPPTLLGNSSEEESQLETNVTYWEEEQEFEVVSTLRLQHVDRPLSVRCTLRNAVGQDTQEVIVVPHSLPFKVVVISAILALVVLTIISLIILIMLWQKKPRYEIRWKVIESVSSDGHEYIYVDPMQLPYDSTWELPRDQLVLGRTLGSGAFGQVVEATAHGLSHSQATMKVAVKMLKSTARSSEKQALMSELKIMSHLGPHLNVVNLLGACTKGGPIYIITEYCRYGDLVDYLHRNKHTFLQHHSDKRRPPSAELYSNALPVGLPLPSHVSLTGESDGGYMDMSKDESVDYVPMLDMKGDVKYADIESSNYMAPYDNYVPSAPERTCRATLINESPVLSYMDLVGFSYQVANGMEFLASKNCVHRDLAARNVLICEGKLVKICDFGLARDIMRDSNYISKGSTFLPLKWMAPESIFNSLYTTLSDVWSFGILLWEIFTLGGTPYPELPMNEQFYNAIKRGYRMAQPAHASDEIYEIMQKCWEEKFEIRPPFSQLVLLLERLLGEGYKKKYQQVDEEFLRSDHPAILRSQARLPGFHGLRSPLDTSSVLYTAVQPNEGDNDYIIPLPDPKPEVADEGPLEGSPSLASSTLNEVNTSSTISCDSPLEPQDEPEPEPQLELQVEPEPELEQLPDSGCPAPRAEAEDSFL
Procedure, shortened: as §1

[24] = molecular target: T24, p38beta (Homo sapiens, UniProt Q15759); conditions: 10 μM, ATP near Km
T24 construct: purchased Millipore, Inc. (KinaseProfiler service)
Procedure, shortened: as §1

[25] = molecular target: T25, SGK2 (Homo sapiens, UniProt Q9HBY8); conditions: 10 μM, ATP near Km
T25 construct: purchased Millipore, Inc. (KinaseProfiler service)
Procedure, shortened: as §1

[26] = molecular target: T26, WNK3 (Homo sapiens, UniProt Q9BYP7); conditions: 10 μM, ATP near Km
T26 construct: purchased Millipore, Inc. (KinaseProfiler service)
Procedure, shortened: as §1

[27] = molecular target: T27, Axl (Homo sapiens, UniProt P30530); conditions: 10 μM, ATP near Km
T27 construct: purchased Millipore, Inc. (KinaseProfiler service)
Procedure, shortened: as §1

[28] = molecular target: T28, Rse (Homo sapiens, UniProt Q06418); conditions: 10 μM, ATP near Km
T28 construct: purchased Millipore (KinaseProfiler service)
T28 sequence (Q06418 41-890): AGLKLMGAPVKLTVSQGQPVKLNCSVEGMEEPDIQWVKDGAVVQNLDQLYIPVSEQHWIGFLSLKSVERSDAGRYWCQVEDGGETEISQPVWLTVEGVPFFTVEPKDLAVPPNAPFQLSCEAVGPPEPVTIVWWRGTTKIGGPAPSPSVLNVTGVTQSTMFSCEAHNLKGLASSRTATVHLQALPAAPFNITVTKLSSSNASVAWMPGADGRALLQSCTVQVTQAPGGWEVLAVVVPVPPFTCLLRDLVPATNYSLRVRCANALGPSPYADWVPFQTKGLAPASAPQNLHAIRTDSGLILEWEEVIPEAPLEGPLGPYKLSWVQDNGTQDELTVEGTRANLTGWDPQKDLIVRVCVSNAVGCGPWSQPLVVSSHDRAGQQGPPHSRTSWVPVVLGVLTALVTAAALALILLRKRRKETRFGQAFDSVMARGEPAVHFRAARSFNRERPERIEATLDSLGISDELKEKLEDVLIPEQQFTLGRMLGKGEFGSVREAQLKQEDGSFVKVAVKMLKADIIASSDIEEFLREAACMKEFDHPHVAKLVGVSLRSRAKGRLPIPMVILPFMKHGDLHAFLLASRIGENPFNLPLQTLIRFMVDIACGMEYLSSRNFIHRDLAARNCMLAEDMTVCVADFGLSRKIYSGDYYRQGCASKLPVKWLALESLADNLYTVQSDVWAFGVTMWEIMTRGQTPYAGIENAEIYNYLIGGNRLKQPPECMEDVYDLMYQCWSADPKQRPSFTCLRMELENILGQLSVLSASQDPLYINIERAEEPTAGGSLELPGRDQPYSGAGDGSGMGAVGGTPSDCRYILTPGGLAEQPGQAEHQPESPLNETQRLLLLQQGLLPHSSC
Procedure, shortened: as §1

[29] = molecular target: T29, EphB3 (Homo sapiens, UniProt P54753); conditions: 10 μM, ATP near Km
T29 construct: purchased Millipore, Inc. (KinaseProfiler service)
Procedure, shortened: as §1

[30] = molecular target: T30, NEK3 (Homo sapiens, UniProt P51956); conditions: 10 μM, ATP near Km
T30 construct: purchased Millipore, Inc. (KinaseProfiler service)
Procedure, shortened: as §1

[31] = molecular target: T31, PKCmu (Homo sapiens, UniProt Q15139); conditions: 10 μM, ATP near Km
T31 construct: purchased Millipore (KinaseProfiler service)
T31 sequence (Q15139 whole entry): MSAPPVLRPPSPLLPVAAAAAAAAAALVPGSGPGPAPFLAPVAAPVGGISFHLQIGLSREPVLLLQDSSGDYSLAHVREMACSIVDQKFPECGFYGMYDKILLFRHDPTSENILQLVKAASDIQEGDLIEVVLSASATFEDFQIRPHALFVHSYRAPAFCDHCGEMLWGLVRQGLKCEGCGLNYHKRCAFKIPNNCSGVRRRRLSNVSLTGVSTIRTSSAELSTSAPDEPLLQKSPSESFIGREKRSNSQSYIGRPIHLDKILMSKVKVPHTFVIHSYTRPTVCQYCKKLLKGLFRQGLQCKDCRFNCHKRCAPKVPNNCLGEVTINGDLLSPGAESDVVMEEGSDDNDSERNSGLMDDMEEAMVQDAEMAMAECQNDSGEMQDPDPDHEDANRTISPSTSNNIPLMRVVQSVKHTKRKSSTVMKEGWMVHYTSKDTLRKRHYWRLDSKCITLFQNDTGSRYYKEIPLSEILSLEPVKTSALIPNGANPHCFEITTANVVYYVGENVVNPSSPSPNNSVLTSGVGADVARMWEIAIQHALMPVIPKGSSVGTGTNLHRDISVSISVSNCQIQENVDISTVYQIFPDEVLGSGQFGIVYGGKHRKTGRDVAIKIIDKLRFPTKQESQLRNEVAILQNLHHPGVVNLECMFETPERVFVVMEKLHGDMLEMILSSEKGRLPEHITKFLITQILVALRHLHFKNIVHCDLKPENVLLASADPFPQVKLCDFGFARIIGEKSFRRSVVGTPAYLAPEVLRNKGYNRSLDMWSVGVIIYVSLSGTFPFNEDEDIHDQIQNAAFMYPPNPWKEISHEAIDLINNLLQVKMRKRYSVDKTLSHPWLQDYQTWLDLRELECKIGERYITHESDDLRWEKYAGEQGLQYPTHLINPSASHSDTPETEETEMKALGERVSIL
Procedure, shortened: as §1

[32] = molecular target: T32, EphB1 (Homo sapiens, UniProt P54762); conditions: 10 μM, ATP near Km
T32 construct: purchased Millipore, Inc. (KinaseProfiler service)
Procedure, shortened: as §1

[33] = molecular target: T33, PrKX (Homo sapiens, UniProt P51817); conditions: 10 μM, ATP near Km
T33 construct: purchased Millipore (KinaseProfiler service)
Procedure, shortened: as §1

[34] = molecular target: T34, CLK2 (Homo sapiens, UniProt P49760); conditions: 10 μM, ATP near Km
T34 construct: purchased Millipore, Inc. (KinaseProfiler service)
Procedure, shortened: as §1

[35] = molecular target: T35, CK2 (Homo sapiens, UniProt P68400); conditions: 10 μM, ATP near Km
T35 construct: purchased Millipore, Inc. (KinaseProfiler service)
Procedure, shortened: as §1

[36] = molecular target: T36, TLK2 (Homo sapiens, UniProt Q86UE8); conditions: 10 μM, ATP near Km
T36 construct: purchased Millipore, Inc. (KinaseProfiler service)
Procedure, shortened: as §1

[37] = molecular target: T37, SIK (Homo sapiens, UniProt P57059); conditions: 10 μM, ATP near Km
T37 construct: purchased Millipore, Inc. (KinaseProfiler service)
Procedure, shortened: as §1

[38] = molecular target: T38, NEK2 (Homo sapiens, UniProt P51955); conditions: 10 μM, ATP near Km
T38 construct: purchased Millipore, Inc. (KinaseProfiler service)
T38 sequence (P51955 whole entry): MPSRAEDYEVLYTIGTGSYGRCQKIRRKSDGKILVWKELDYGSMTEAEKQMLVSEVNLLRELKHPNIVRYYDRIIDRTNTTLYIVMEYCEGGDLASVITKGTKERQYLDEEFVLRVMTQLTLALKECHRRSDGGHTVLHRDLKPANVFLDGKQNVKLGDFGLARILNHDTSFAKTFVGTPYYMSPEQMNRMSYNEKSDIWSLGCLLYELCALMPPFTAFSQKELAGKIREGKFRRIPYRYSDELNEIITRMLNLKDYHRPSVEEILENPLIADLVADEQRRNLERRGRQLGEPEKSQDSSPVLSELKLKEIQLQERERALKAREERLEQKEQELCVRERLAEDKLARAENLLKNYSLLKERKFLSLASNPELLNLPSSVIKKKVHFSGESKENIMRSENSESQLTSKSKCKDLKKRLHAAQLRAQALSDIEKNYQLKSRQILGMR
Procedure, shortened: as §1

[39] = molecular target: T39, EphA7 (Homo sapiens, UniProt Q15375); conditions: 10 μM, ATP near Km
T39 construct: purchased Millipore, Inc. (KinaseProfiler service)
Procedure, shortened: as §1

[40] = molecular target: T40, EphA3 (Homo sapiens, UniProt P29320); conditions: 10 μM, ATP near Km
T40 construct: purchased Millipore, Inc. (KinaseProfiler service)
Procedure, shortened: as §1

[41] = molecular target: T41, PAK5 (Homo sapiens, UniProt Q9P286); conditions: 10 μM, ATP near Km
T41 construct: purchased Millipore, Inc. (KinaseProfiler service)
Procedure, shortened: as §1

SMILES: COCCN1C[C@@H](NC(=O)Nc2c(-c3ccccc3)nc3c(C)nccn23)[C@H](c2ccc(F)c(F)c2)C1 [Example 20, 1-((3S,4R)-4-(3,4-difluorophenyl)-1-(2-methoxyethyl)pyrrolidin-3-yl)-3-(8-methyl-2-phenylimidazo[1,2-a]pyrazin-3-yl)urea]
- Avg. POC [1]: 104.5 POC
- Avg. POC [2]: 114 POC
- Avg. POC [3]: 111 POC
- Avg. POC [4]: 114 POC
- Avg. POC [5]: 96.5 POC
- Avg. POC [6]: 104 POC
- Avg. POC [7]: 104 POC
- Avg. POC [8]: 98.5 POC
- Avg. POC [9]: 102 POC
- Avg. POC [10]: 105.5 POC
- Avg. POC [11]: 103.5 POC
- Avg. POC [12]: 111 POC
- Avg. POC [13]: 122.5 POC
- Avg. POC [14]: 103 POC
- Avg. POC [15]: 105.5 POC
- Avg. POC [16]: 111.5 POC
- Avg. POC [17]: 110 POC
- Avg. POC [18]: 102 POC
- Avg. POC [19]: 102 POC
- Avg. POC [20]: −2 POC
- Avg. POC [21]: 105 POC
- Avg. POC [22]: 105 POC
- Avg. POC [23]: 114 POC
- Avg. POC [24]: 98.5 POC
- Avg. POC [25]: 105 POC
- Avg. POC [26]: 115.5 POC
- Avg. POC [27]: 97 POC
- Avg. POC [28]: 102.5 POC
- Avg. POC [29]: 107 POC
- Avg. POC [30]: 103 POC
- Avg. POC [31]: 100.5 POC
- Avg. POC [32]: 85 POC
- Avg. POC [33]: 120.5 POC
- Avg. POC [34]: 106.5 POC
- Avg. POC [35]: 109 POC
- Avg. POC [36]: 105 POC
- Avg. POC [37]: 97.5 POC
- Avg. POC [38]: 91 POC
- Avg. POC [39]: 104.5 POC
- Avg. POC [40]: 98 POC
- Avg. POC [41]: 105.5 POC
